# Results from article PMC6979384, “Characterization of the plant homeodomain (PHD) reader family for their histone tail interactions” (Epigenetics & Chromatin, 2020).
# Columns and labels:
# Experiment in all cases: Histone peptide microarray
# Type in all cases: binding, human
# Settings in all cases: sheet "Array Heatmap"
# ING4 = system: ING4
# In short: (§1)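 Steps: express and purify GST-tagged PHD reader; incubate 0.5 μM protein on a peptide microarray (293 histone peptides, single or combined PTMs) following an optimized protocol; average signal across 4 replicates.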
# MLL5 = system: MLL5
# In short: as §1
# KDM5B (3) = system: KDM5B (3)
# In short: as §1
# SP140L = system: SP140L
# In short: as §1
# DPF2 (PPC2W2) = system: DPF2 (PPC2W2)
# In short: as §1
# PHRF1 (RP) = system: PHRF1 (RP)
# In short: as §1
# CHD4 (PPCC) = system: CHD4 (PPCC)
# In short: as §1
# PHF23 = system: PHF23
# In short: as §1
# KDM5A (1) = system: KDM5A (1)
# In short: as §1
# KDM4C (TTP) = system: KDM4C (TTP)
# In short: as §1
# CHD5 (PCC) = system: CHD5 (PCC)
# In short: as §1
# RAG2 = system: RAG2
# In short: as §1
# ING1 = system: ING1
# In short: as §1
# ING5 = system: ING5
# In short: as §1
# AIRE (PP) = system: AIRE (PP)
# In short: as §1
# BAZ2B = system: BAZ2B
# In short: as §1
# TAF3 = system: TAF3
# In short: as §1
# PHF2 = system: PHF2
# In short: as §1
# DIDO1 = system: DIDO1
# In short: as §1
# KDM7A = system: KDM7A
# In short: as §1
# ING3 = system: ING3
# In short: as §1
# BPTF (PB) = system: BPTF (PB)
# In short: as §1
# PHF21A = system: PHF21A
# In short: as §1
# TRIM66 (PB) = system: TRIM66 (PB)
# In short: as §1
# KDM5A (3) = system: KDM5A (3)
# In short: as §1
# ING2 = system: ING2
# In short: as §1
# KDM5B (1) = system: KDM5B (1)
# In short: as §1
# PHF13 = system: PHF13
# In short: as §1
# MORC3 (CW) = system: MORC3 (CW)
# In short: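 GST-PHD reader, 0.5 μM, probed on 293-peptide histone array (single/combinatorial PTMs); optimized array protocol; signal = mean ± SD, n = 4.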
# CHD5 (PPCC) = system: CHD5 (PPCC)
# In short: as §1
# PHF8 = system: PHF8
# In short: as §1
substance,measurement,setting,value
H3K4me1 (1-21): H3 1-21,Array Heatmap value (peptide array signal),"ING4; ING4, each array performed twice, total n = 4",0.4485
same,Array Heatmap value (peptide array signal),"MLL5; MLL5, each array performed twice, total n = 4",0.5781
same,Array Heatmap value (peptide array signal),"KDM5B (3); KDM5B (3), each array performed twice, total n = 4",0.4879
same,Array Heatmap value (peptide array signal),"SP140L; SP140L, each array performed twice, total n = 4",0.3636
same,Array Heatmap value (peptide array signal),"DPF2 (PPC2W2); DPF2 (PPC2W2), each array performed twice, total n = 4",0.6848
same,Array Heatmap value (peptide array signal),"PHRF1 (RP); PHRF1 (RP), each array performed twice, total n = 4",0.5109
same,Array Heatmap value (peptide array signal),"CHD4 (PPCC); CHD4 (PPCC), each array performed twice, total n = 4",0.5532
same,Array Heatmap value (peptide array signal),"PHF23; PHF23, each array performed twice, total n = 4",0.5596
same,Array Heatmap value (peptide array signal),"KDM5A (1); KDM5A (1), each array performed twice, total n = 4",0.4646
same,Array Heatmap value (peptide array signal),"KDM4C (TTP); KDM4C (TTP), each array performed twice, total n = 4",0.468
same,Array Heatmap value (peptide array signal),"CHD5 (PCC); CHD5 (PCC), each array performed twice, total n = 4",0.76
same,Array Heatmap value (peptide array signal),"RAG2; RAG2, each array performed twice, total n = 4",0.2554
same,Array Heatmap value (peptide array signal),"ING1; ING1, each array performed twice, total n = 4",0.559
same,Array Heatmap value (peptide array signal),"ING5; ING5, each array performed twice, total n = 4",0.355
same,Array Heatmap value (peptide array signal),"AIRE (PP); AIRE (PP), each array performed twice, total n = 4",0.4291
same,Array Heatmap value (peptide array signal),"BAZ2B; BAZ2B, each array performed twice, total n = 4",0.4634
same,Array Heatmap value (peptide array signal),"TAF3; TAF3, each array performed twice, total n = 4",0.2643
same,Array Heatmap value (peptide array signal),"PHF2; PHF2, each array performed twice, total n = 4",0.5317
same,Array Heatmap value (peptide array signal),"DIDO1; DIDO1, each array performed twice, total n = 4",0.6834
same,Array Heatmap value (peptide array signal),"KDM7A; KDM7A, each array performed twice, total n = 4",0.3293
same,Array Heatmap value (peptide array signal),"ING3; ING3, each array performed twice, total n = 4",0.4698
same,Array Heatmap value (peptide array signal),"BPTF (PB); BPTF (PB), each array performed twice, total n = 4",0.3509
same,Array Heatmap value (peptide array signal),"PHF21A; PHF21A, each array performed twice, total n = 4",0.4499
same,Array Heatmap value (peptide array signal),"TRIM66 (PB); TRIM66 (PB), each array performed twice, total n = 4",0.5876
same,Array Heatmap value (peptide array signal),"KDM5A (3); KDM5A (3), each array performed twice, total n = 4",0.5345
same,Array Heatmap value (peptide array signal),"ING2; ING2, each array performed twice, total n = 4",0.622
same,Array Heatmap value (peptide array signal),"KDM5B (1); KDM5B (1), each array performed twice, total n = 4",0.658
same,Array Heatmap value (peptide array signal),"PHF13; PHF13, each array performed twice, total n = 4",0.6202
same,Array Heatmap value (peptide array signal),"MORC3 (CW); MORC3 (CW), each array performed twice, total n = 4",0.4815
same,Array Heatmap value (peptide array signal),"CHD5 (PPCC); CHD5 (PPCC), each array performed twice, total n = 4",0.5364
same,Array Heatmap value (peptide array signal),"PHF8; PHF8, each array performed twice, total n = 4",0.3966
H3.3 15-34: H3.3 15-34,"Array Heatmap signal, ING4","ING4; GST-tagged ING4, arrays performed twice, total replicate number n = 4",0.4948
same,"Array Heatmap signal, MLL5","MLL5; GST-tagged MLL5, arrays performed twice, total replicate number n = 4",0.5484
same,"Array Heatmap signal, KDM5B (3)","KDM5B (3); GST-tagged KDM5B (3), arrays performed twice, total replicate number n = 4",0.5078
same,"Array Heatmap signal, SP140L","SP140L; GST-tagged SP140L, arrays performed twice, total replicate number n = 4",0.3703
same,"Array Heatmap signal, DPF2 (PPC2W2)","DPF2 (PPC2W2); GST-tagged DPF2 (PPC2W2), arrays performed twice, total replicate number n = 4",0.6732
same,"Array Heatmap signal, PHRF1 (RP)","PHRF1 (RP); GST-tagged PHRF1 (RP), arrays performed twice, total replicate number n = 4",0.4107
same,"Array Heatmap signal, CHD4 (PPCC)","CHD4 (PPCC); GST-tagged CHD4 (PPCC), arrays performed twice, total replicate number n = 4",0.5508
same,"Array Heatmap signal, PHF23","PHF23; GST-tagged PHF23, arrays performed twice, total replicate number n = 4",0.5121
same,"Array Heatmap signal, KDM5A (1)","KDM5A (1); GST-tagged KDM5A (1), arrays performed twice, total replicate number n = 4",0.5272
same,"Array Heatmap signal, KDM4C (TTP)","KDM4C (TTP); GST-tagged KDM4C (TTP), arrays performed twice, total replicate number n = 4",0.5726
same,"Array Heatmap signal, CHD5 (PCC)","CHD5 (PCC); GST-tagged CHD5 (PCC), arrays performed twice, total replicate number n = 4",0.807
same,"Array Heatmap signal, RAG2","RAG2; GST-tagged RAG2, arrays performed twice, total replicate number n = 4",0.2498
same,"Array Heatmap signal, ING1","ING1; GST-tagged ING1, arrays performed twice, total replicate number n = 4",0.5055
same,"Array Heatmap signal, ING5","ING5; GST-tagged ING5, arrays performed twice, total replicate number n = 4",0.3926
same,"Array Heatmap signal, AIRE (PP)","AIRE (PP); GST-tagged AIRE (PP), arrays performed twice, total replicate number n = 4",0.5768
same,"Array Heatmap signal, BAZ2B","BAZ2B; GST-tagged BAZ2B, arrays performed twice, total replicate number n = 4",0.5105
same,"Array Heatmap signal, TAF3","TAF3; GST-tagged TAF3, arrays performed twice, total replicate number n = 4",0.298
same,"Array Heatmap signal, PHF2","PHF2; GST-tagged PHF2, arrays performed twice, total replicate number n = 4",0.4208
same,"Array Heatmap signal, DIDO1","DIDO1; GST-tagged DIDO1, arrays performed twice, total replicate number n = 4",0.6133
same,"Array Heatmap signal, KDM7A","KDM7A; GST-tagged KDM7A, arrays performed twice, total replicate number n = 4",0.5038
same,"Array Heatmap signal, ING3","ING3; GST-tagged ING3, arrays performed twice, total replicate number n = 4",0.4684
same,"Array Heatmap signal, BPTF (PB)","BPTF (PB); GST-tagged BPTF (PB), arrays performed twice, total replicate number n = 4",0.3589
same,"Array Heatmap signal, PHF21A","PHF21A; GST-tagged PHF21A, arrays performed twice, total replicate number n = 4",0.4988
same,"Array Heatmap signal, TRIM66 (PB)","TRIM66 (PB); GST-tagged TRIM66 (PB), arrays performed twice, total replicate number n = 4",0.563
same,"Array Heatmap signal, KDM5A (3)","KDM5A (3); GST-tagged KDM5A (3), arrays performed twice, total replicate number n = 4",0.4324
same,"Array Heatmap signal, ING2","ING2; GST-tagged ING2, arrays performed twice, total replicate number n = 4",0.6004
same,"Array Heatmap signal, KDM5B (1)","KDM5B (1); GST-tagged KDM5B (1), arrays performed twice, total replicate number n = 4",0.7186
same,"Array Heatmap signal, PHF13","PHF13; GST-tagged PHF13, arrays performed twice, total replicate number n = 4",0.6359
same,"Array Heatmap signal, MORC3 (CW)","MORC3 (CW); GST-tagged MORC3 (CW), arrays performed twice, total replicate number n = 4",0.367
same,"Array Heatmap signal, CHD5 (PPCC)","CHD5 (PPCC); GST-tagged CHD5 (PPCC), arrays performed twice, total replicate number n = 4",0.5888
same,"Array Heatmap signal, PHF8","PHF8; GST-tagged PHF8, arrays performed twice, total replicate number n = 4",0.386
